Measured values from publication PMC5955599, “The HTLV-1 gp21 fusion peptide inhibits antigen specific T-cell activation in-vitro and in mice” (PLoS Pathogens, 2018).

Legend:
C57BL/6 female mice = assay: MOG35-55-induced experimental autoimmune encephalomyelitis (EAE); format: in vivo, mouse
Procedure: (A-B) MOG35-55–antigen specific T-cells were activated by irradiated MOG35-55 presenting APCs, in the presence of HTLV FP or HTLV Scr at 10μM. (A) The proliferative responses were assessed by H^3-thymidine incorporation assay, and normalized to the proliferation of non-activated T-cells. The data is presented as mean inhibition of proliferation. n = 12. (B) IFN-γ was measured by ELISA assay. n = 12. (C-D) EAE was induced in C57BL/6 female mice that were treated with a single dose of HTLV FP, HTLV Scr or vehicle. […] (C) Direct clinical measurement of EAE phenotype in a 5-point scale with increased disease symptoms correlating with higher score value. The data is presented as mean EAE clinical score. (D) Mice were weighed the day before EAE induction, and the change (as a percentage) in weight was recorded. The data is presented as mean change from the initial weight. One-way ANOVA was used for statistical analysis. ^a HTLV FP ≠ Vehicle; ^b HTLV FP ≠ Vehicle & HTLV Scr; ^c HTLV FP ≠ HTLV Scr. ^a,b,cP<0.05. (E) Spleenocytes were harvested at 26 DPI and stimulated using MOG35-55. The proliferative responses were assessed by H^3-thymidine incorporation assay and normalized to the proliferation of non-activated T-cells. The data is presented as counts per minute (CPM). n = 7. (F-G) Spleenocytes were harvested at 26 DPI and stimulated using MOG35-55. Media was collected 48 hours following activation and secretion of IFN-γ and IL4 was measured by ELISA assay. […] One-way ANOVA was used for statistical analysis. *P<0.05;**P<0.01;***P<0.001; ns, not significant.
EAE was induced in 9-week-old wild type and homozygous C57BL/6 female mice (Harlan Laboratories Israel/ Weizmann Institute animal facilities) by injecting a peptide comprising residues 35–55 of mouse myelin oligodendrocyte glycoprotein (MOG35–55; PolyPeptide Laboratories, Strasbourg, France). Mice were injected subcutaneously above the lumbar spinal cord with 100 μl of emulsion containing 200 μg/mouse of the encephalitogenic peptide in complete Freund’s adjuvant (BD-Difco) enriched with 250 μg/mouse of heat-inactivated Mycobacterium tuberculosis (BD-Difco) at 0 days post-induction (DPI). The HTLV FP was dissolved in PBS and added to the emulsion (1mg/kg). Pertussis toxin (Enzo Life Sciences) at a dose of 300 ng per mouse was injected intraperitoneally immediately after the encephalitogenic injection, as well as at […]. EAE disease was scored using a five-point grading with 0 for no clinical disease; 1, tail weakness; 2, paraparesis (incomplete paralysis of one or two hindlimbs); 3, paraplegia (complete paralysis of one or two hindlimbs); 4, paraplegia with forelimb weakness or paralysis; 5, moribund or dead animals. The mice were examined daily.
EAE was induced in C57BL/6 female mice that were either treated with a single dose of HTLV FP or vehicle. […] (A) Direct clinical measurement of EAE phenotype in a 5-point scale with increased disease symptoms correlating with higher score value. The data is presented as mean EAE clinical score. (B) Mice were weighed the day before EAE induction, and the change (as a percentage) in weight was recorded. The data is presented as mean change from the initial weight. Student’s t-test was used for statistical analysis. *P<0.05; **P<0.01;***P<0.001. (TIF) Click here for additional data file.

[1] = tested on: MOG35-55–antigen specific T-cells; assay: Cytokine secretion from activated antigen-specific T-cells (ELISA); format: cell-based, mouse (C57Bl/6J); details: peptide at 10μM, APC-activated T-cells, media 24 hours following activation, n = 12
Procedure: Fig 2 Modulation of Th1/Th2 gene expression and cytokine secretion from activated T-cells by the HTLV FP. MOG35-55–antigen specific T-cells were activated by irradiated MOG35-55 presenting APCs, in the presence of the HTLV FP at 10μM. (A) Total RNA was isolated 24 hours following activation and mRNA expression levels were determined by qRT-PCR. The values of each gene were normalized to Rpl13a as a housekeeping control. The HTLV FP reduces mRNA expression of Th1 specific genes (IFNG, LTA, and STAT4) and elevates mRNA expression of Th2 specific genes (IL4 and IL10). The data is presented as arbitrary units. n≥3. (B) Media was collected 24 hours following activation and secretion of cytokines was measured by ELISA assay. IFN-γ secretion is inhibited, IL4 secretion is elevated and TNFα is not affected by the HTLV FP. n = 12. One-way ANOVA was used for statistical analysis. *P<0.05; **P<0.01;***P<0.001.
Antigen-specific T-cells were plated onto round 96-well plates in medium containing RPMI-1640 supplemented with 2.5% fetal calf serum (FCS), 100 U/ml penicillin, 100 μg/ml streptomycin, 50μM β-mercaptoethanol, and 2mM L-glutamine. […] In addition, the relevant peptide was added. Each treatment was made with quadruplicate. Analysis of IFN-γ, IL-4 and TNFα secretion was performed by ELISA 24 hours after cell activation according to standard protocols from R&D systems.

[2] = tested on: human peripheral T lymphocytes; assay: Cytokine secretion from primary human peripheral T-cells (ELISA); format: cell-based; details: peptide at 10μM, CD3 and CD28 antibodies, media 48 hours following activation, n = 12
Procedure: Fig 4 Primary human T-cell activation is inhibited upon HTLV FP treatment. Human peripheral T lymphocytes were isolated from whole blood and activated using CD3 and CD28 antibodies, in the presence of HTLV FP or HTLV Scr at 10μM. Media was collected 48 hours following activation and secretion of IL2, IFN-γ and IL10 was measured by ELISA assay. […] One-way ANOVA was used for statistical analysis. *P<0.05; ***P<0.001; ns, not significant.
Human peripheral T lymphocytes were isolated from whole blood of healthy adult donors by dextran sedimentation and Ficoll (Sigma) gradient separation followed by depletion of B cells using nylon wool column (Unisorb), to which B cells were adsorbed. Cells were incubated in a complete RPMI growth medium (500 ml RPMI Ca/Mg + heat inactivated FCS (10% final) + 5 ml 200 mM L-Glu (2 mM final) +5 ml […] Na pyruvate (1 mM final) + 5 ml Pen Strep antibiotics) for more than 2 h, and then non-adherent cells were harvested and transferred to a new plate, resulting in ~90% CD3+ T lymphocytes. Cells were then used for in vitro assay, in which […] were plated per well in a 96-well plate and activated using CD3 and CD28 antibodies.
Human peripheral T lymphocytes were isolated from whole blood of healthy donors and were incubated in a complete RPMI growth medium (500 ml RPMI Ca/Mg + heat inactivated FCS (10% final) + 5 ml 200 mM L-Glu (2 mM final) +5 ml […] Na pyruvate (1 mM final) + 5 ml Pen Strep antibiotics). Cells were activated using CD3 and CD28 antibodies, in the presence of relevant peptides at 10μM. Media was collected 48 hours following activation and secretion of IL2 and IFN-γ was determined according to standard protocols from R&D systems.

[3] = tested on: MOG35-55–antigen specific T-cells; assay: In-vitro T-cell proliferative response (H3-thymidine incorporation); format: cell-based, mouse (C57Bl/6J); details: peptide at 10μM, irradiated MOG35-55 presenting APCs, mean inhibition of proliferation, n = 12

ASKAASASPVSAGVTGIGVLMLGVVAMGWASLG [HTLV Scr, scrambled HTLV FP peptide, same amino acid composition and length as the HTLV FP]
clinical symptoms of a cage of treated mice at DPI 17 (C57BL/6 female mice; additional experiment, S5 and S6 Movies): exhibiting clinical EAE symptoms | EAE clinical signs, additional experiment (C57BL/6 female mice; single dose 1mg/kg, HTLV FP, HTLV Scr or vehicle, period 11 to 16 DPI, 5-point scale): ascent between 11 to 16 DPI | IFN-γ secretion [1]: higher potency than the HTLV Scr | IFN-γ secretion, human T-cells [2]: had no effect on T-cell activation | IL2 secretion, human T-cells [2]: had no effect on T-cell activation | IL10 secretion, human T-cells [2]: had no effect on T-cell activation | inhibition of T-cell proliferation, activation by MOG35-55 presenting APCs [3]: higher potency than the HTLV Scr
